The results in this text go back to ChEMBL document CHEMBL4219165, “Discovery of a novel allosteric inhibitor scaffold for polyadenosine-diphosphate-ribose polymerase 14 (PARP14) macrodomain 2” (Bioorg Med Chem, 2018).

Some results are limits rather than exact numbers.

For this assay, the target named is Protein mono-ADP-ribosyltransferase PARP14 (Homo sapiens, UniProt Q460N5). Nature of the assay: Displacement of ARTK(Bio)QTARK(Aoa-RADP)S from His6-tagged PARP14 MD2 (A994 to N1191 residues) (unknown origin) expressed in bacterial expression system after 30 mins by AlphaScreen assay. Background: Alpha assays give light when donor and acceptor beads are brought close together.
Chain of Protein mono-ADP-ribosyltransferase PARP14 (Q460N5 whole entry, the tested form may be a part): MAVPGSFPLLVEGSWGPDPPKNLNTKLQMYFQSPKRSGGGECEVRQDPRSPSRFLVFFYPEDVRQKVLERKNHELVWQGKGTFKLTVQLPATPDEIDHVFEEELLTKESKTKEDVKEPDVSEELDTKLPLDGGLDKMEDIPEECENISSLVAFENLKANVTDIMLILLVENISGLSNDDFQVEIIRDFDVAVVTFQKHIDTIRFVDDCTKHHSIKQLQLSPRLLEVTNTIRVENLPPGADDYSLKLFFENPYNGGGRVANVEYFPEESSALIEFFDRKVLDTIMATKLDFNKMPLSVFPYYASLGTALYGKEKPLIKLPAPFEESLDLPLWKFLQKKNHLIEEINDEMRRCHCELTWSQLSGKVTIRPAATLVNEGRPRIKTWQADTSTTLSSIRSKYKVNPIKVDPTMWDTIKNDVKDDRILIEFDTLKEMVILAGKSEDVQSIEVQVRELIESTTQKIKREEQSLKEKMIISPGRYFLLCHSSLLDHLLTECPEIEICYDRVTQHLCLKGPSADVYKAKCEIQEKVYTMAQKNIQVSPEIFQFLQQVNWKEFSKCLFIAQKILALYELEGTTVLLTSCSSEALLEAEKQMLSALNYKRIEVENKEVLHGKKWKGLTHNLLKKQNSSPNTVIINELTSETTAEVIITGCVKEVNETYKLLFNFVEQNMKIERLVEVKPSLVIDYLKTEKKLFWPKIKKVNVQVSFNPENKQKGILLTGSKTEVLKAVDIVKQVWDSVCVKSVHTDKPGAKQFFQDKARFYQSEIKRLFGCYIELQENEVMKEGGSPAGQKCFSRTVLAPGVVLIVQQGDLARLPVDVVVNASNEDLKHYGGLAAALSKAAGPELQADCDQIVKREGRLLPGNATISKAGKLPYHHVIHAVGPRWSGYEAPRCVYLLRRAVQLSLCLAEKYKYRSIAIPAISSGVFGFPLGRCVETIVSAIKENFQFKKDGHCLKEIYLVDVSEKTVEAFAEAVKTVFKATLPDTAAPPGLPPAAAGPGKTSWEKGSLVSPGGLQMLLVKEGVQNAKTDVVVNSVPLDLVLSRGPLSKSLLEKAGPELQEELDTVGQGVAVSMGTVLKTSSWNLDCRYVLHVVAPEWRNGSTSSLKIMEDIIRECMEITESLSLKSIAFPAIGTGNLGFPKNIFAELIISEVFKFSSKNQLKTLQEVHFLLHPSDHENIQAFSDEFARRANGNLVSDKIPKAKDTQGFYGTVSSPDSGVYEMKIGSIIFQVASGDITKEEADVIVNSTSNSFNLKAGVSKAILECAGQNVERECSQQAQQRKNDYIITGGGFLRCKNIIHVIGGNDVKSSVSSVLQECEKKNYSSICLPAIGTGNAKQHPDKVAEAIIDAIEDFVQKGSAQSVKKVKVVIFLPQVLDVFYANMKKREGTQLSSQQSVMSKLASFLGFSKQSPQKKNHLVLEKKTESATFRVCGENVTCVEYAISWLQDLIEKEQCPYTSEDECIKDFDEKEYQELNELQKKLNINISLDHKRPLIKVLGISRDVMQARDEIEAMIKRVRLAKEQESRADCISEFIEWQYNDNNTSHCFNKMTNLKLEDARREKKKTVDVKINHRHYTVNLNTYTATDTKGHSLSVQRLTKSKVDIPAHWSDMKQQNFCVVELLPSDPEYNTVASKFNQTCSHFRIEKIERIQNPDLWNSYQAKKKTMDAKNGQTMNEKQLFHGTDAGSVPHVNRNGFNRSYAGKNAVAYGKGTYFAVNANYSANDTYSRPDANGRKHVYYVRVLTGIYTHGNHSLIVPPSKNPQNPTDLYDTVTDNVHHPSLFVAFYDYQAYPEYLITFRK
Usually IC50 stands for the concentration needed to halve the response being measured. Low values mean greater potency in that assay, high ones weaker potency in that assay. With `CC(=O)Nc1ccccc1-c1cccc2c3c([nH]c12)CCNC3`, the IC50 was > 50 µM.

Consider `COc1ccc2[nH]c3c(-c4ccccc4NC(C)=O)cccc3c2c1`, for which the IC50 is > 50 µM.

Regarding `CC(=O)Nc1ccccc1-c1cccc2c(C(C)C)c[nH]c12`, the IC50 came to 18 µM.

Turning to `CC(Nc1ccccc1-c1cccc2c1[nH]c1ccccc12)C(F)(F)F` (racemic), the 50% inhibitory concentration (IC50) is > 50 µM.
